In US12728122B2, “Treatment of urothelial and kidney cancers by use of endothelin B receptor antagonists” (ENB Therapeutics, Inc., priority 2019, dated 2026):
“Also recorded” adds a separate entry of the source.

Columns and labels:
[1] = target: T1, human Endothelin receptor type A (ETA) (Homo sapiens, UniProt P25101); experiment: ETA (h) cellular antagonist effect; format: cell-based
T1 sequence (P25101 21-427): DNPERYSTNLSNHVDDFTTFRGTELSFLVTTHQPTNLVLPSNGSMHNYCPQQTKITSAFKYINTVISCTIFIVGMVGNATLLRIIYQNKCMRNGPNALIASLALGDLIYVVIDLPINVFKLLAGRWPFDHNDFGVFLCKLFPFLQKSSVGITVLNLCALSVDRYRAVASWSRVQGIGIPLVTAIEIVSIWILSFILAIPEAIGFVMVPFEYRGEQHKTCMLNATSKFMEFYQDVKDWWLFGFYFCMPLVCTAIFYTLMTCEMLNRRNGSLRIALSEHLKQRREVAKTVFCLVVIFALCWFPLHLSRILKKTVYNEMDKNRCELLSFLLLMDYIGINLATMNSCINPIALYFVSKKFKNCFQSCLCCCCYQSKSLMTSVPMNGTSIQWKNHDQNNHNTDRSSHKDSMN
Procedure: FIGS. 5A and 5B illustrate human (“h”) Endothelin receptor type A (“ETA”) inhibitory effect for A) BQ-788 and B) BQ-788-B (Compound 1), a specifically deuterated ETBR antagonist. Cellular agonist effect was calculated as a % of control response to a known reference agonist for ETA (h), and cellular antagonist effect was calculated as a % inhibition of control reference agonist response for ETA.
Determination of ETA (h) inhibitory effect for BQ-788 and BQ-788-B (COMPOUND 1). […] Cellular agonist effect was calculated as a % of control response to a known reference agonist for ETA (h), and cellular antagonist effect was calculated as a % inhibition of control reference agonist response for ETA.

plasma ET-1 = experiment: Plasma ET-1 ELISA after IV infusion, indirect measure of ETBR engagement; format: in vivo; conditions: rats, 250 μg/kg IV infusion
Procedure: Plasma concentrations of BQ-788 versus BQ-788-B (COMPOUND 1). […] Briefly, rats (N=4 animals per timepoint) were administered either BQ-788 or the deuterated form, BQ-788-B (COMPOUND 1) at a dose of 250 μg/kg via IV infusion. Plasma samples were collected at various time points and ET-1 ELISA performed. BQ788 and BQ788-B are peptide drugs that are rapidly degraded in plasma and thus drug levels are difficult to detect directly. […] As such, plasma levels of ET-1 are commonly used as an indirect measure of BQ-788 biologic activity.

[2] = system: V600E+ (BRAF mutated) SM1 tumor; experiment: Syngeneic melanoma V600E+ (BRAF mutated) SM1 tumor model, tumor volume and IHC; format: in vivo, C57BL/6 mice
Procedure: The syngeneic melanoma model V600E+ (BRAF mutated) SM1 tumor model was used in C57BL/6 mice to assess efficacy of deuterated ETBR antagonists in combination with immunotherapeutics (“B+P”) as compared to a standard treatment, dabrafenib with anti-PD1 (“D+P”). […] In this study 6-8 week old female C57BL/6 mice were inoculated with SM1 tumor fragments (TME* components present). Dosing was initiated when tumors were 150 mm3. The general dosing schemes were as follows: dabrafenib (30 mg/kg daily by oral gavage), immunotherapeutic 10 mg/kg Q4D IP beginning 2 days after dabrafenib), deuterated ETBR antagonist (4 μg administered QOD IV beginning 2 days after dabrafenib). Tumors were measured three times per week, and the study was terminated after 21 days of dosing and IHC analysis of tumors was performed.
TLOs are functionally equivalent to lymph nodes, produce tumor-specific T- and B-cells, and induce long lasting anti-tumor immunity.
FIG. 11 provides table summaries of the results obtained with combination therapies (two- and three-part), TLO formation and efficacy for tumor eradication. The model system tested is as described for FIG. 8. The combinations included dabrafenib+anti-PD1 (“D+P”); dabrafenib+anti-PD1+BQ-788-B (COMPOUND 1) at 0.6 μg (“D+P+B (0.6 μg)”); dabrafenib+anti-PD1+BQ-788-B (COMPOUND 1) at 4.0 μg (“D+P+B (4.0 μg)”); dabrafenib+anti-PD1+BQ-788-B (COMPOUND 1) at 100 μg (“D+P+B (100 μg)”); and anti-PD1+BQ-788-B (COMPOUND 1) at (4.0 μg) (“P+B (4.0 μg)”). […] FIG. 12 presents the efficacy results as a function of tumor volume (mm3).
6 week old female C57BL/6 mice, n=5 per group, were implanted with V600E+ melanoma cancer tumor cells. Once tumors were established, mice were dosed with ETBR antagonists and immune checkpoint inhibitors combination therapy. 21 days post treatment, histological examination was performed, FIG. 20.

Recombinant human CXCR4 = target: T2, Recombinant human CXCR4 (Homo sapiens, UniProt P61073); experiment: CXCR4 (h) cellular antagonist effect, impedance by dielectric spectroscopy; format: cell-based; conditions: CHO cells, stimulated with 1 nM SDF-1α, 28° C
T2 construct: expressed in transfected cells; host or cells: CHO cells
T2 sequence (P61073 whole entry): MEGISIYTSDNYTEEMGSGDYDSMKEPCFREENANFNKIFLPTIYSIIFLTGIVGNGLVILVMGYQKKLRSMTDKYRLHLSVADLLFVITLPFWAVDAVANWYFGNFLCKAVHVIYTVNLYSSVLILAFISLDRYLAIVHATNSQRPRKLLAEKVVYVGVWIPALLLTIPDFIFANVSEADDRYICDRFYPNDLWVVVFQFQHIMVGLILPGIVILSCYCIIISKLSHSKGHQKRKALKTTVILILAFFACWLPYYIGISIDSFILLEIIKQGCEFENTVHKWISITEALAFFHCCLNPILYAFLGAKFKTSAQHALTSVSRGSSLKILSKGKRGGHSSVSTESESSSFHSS
Procedure: FIGS. 4A and 4B illustrates human (“h”) CXCR inhibitory effects for, A) BQ-788 and B) BQ-788-B (Compound 1), a specifically deuterated ETBR antagonist. Cellular agonist effect was calculated as a % of control response to a known reference agonist for CXCR4 (h), and cellular antagonist effect was calculated as a % inhibition of control reference agonist response for CXCR4.
Determination of CXCR4 inhibitory effect. The inhibitory effect on CXCR4 (h) was determined for BQ-788 (FIG. 4A), and BQ-788-B (COMPOUND 1) (FIG. 4B). Cellular agonist effect was calculated as a % of control response to a known reference agonist for CXCR4 (h), and cellular antagonist effect was calculated as a % inhibition of control reference agonist response for CXCR4. Recombinant human CXCR4 was expressed in CHO cells, and stimulated with 1 nM SDF-1α and incubated at 28° C. Dielectric spectroscopy was used to measure impedance of the cells.

[3] = system: bladder cancer tumor cells, MB49-PDIRA-220; experiment: Syngeneic bladder cancer murine model, tumor volume; format: in vivo, C57BL/6 mice; conditions: for anti-bladder cancer treatment efficacy (tumor volume): vs control and single agents
Procedure: 6 week old female C57BL/6 mice, n=5 per group, were implanted with bladder cancer tumor cells, MB49-PDIRA-220 at the right flank. When tumors reached from about 50 mm^3-75 mm^3 in volume, mice were separated into 4 treatment groups: (1) dosed with 4 μg of BQ-788-B (Compound 1) intravenously on days 1, 3, 5, 8, 10, 12 and 15 and with 100 μg of an anti-PD-1 agent intraperitoneally on days 1, 4, 9 and 13; (2) dosed with 4 μg of BQ-788-B (Compound 1) intravenously on days 1, 3, 5, 8, 10, 12 and 15; (3) dosed with 100 μg of an anti-PD-1 agent intraperitoneally on days 1, 4, 9 and 13; or (4) untreated control. Tumor volume measurements were taken every two days post treatment.
6 week old female C57BL/6 mice, n=5 per group, were implanted with bladder cancer tumor cells, MB49-PD1RA-220 at the right flank. When tumors reached from about 100 mm^3 in volume, mice were separated into 4 treatment groups: (1) dosed with BQ-788-B (Compound 1) intravenously on days 1, 3, 5, and 8 with 100 μg of an immunotherapeutic agent, namely an anti-PD-1 antibody intraperitoneally on days 1, 4, 9 and 13 (2) dosed with 4 μg of BQ-788-B (Compound 1) intravenously on days 1, 3, 5, and 8 (3) dosed with 100 μg of an anti-PD-1 agent intraperitoneally on days 1, 4, 9 and 13 or (4) untreated control. Tumor volume measurements were taken 3 times per week. The study was terminated on day 8 due to morbidity of control groups.
6 week old female C57BL/6 mice, n=5 per group, were implanted with bladder cancer tumor cells, MB49-PDIRA-220 at the right flank. When tumors reached from about 25 mm^3-50 mm^3 volume, mice were separated into 4 treatment groups: (1) dosed with 4 μg of BQ-788-B (BQ788) intravenously on days 1, 3, 5, and 8 with 100 μg of an anti-PD-1 agent intraperitoneally on days 1, 4, and 9 (2) dosed with 4 μg of BQ-788-B (BQ788) intravenously on days 1, 3, 5, and 8 (3) dosed with 100 μg of an anti-PD-1 agent intraperitoneally on days 1, 4, and 9 or (4) untreated control. Tumor volume measurements were taken 3 times per week. The study was terminated on day 12 due to morbidity of control groups.

[4] = combination with anti-PD1, histology 21 days after treatment

Compound	IC50, ETA (h) inhibitory effect [1]	plasma ET-1 transient peak at (plasma ET-1)	plasma ET-1 prolonged peak out to (plasma ET-1)	plasma ET-1 response relative to BQ-788 (plasma ET-1)	CD8+ TIL staining distribution ([2]; BQ-788-B 0.6 μg + immune checkpoint inhibitor + dabrafenib, 21 days)	CD8+ TIL staining distribution ([2]; BQ-788-B 4.0 μg + anti-PD1 + dabrafenib, 21 days)	CD8+ TIL staining distribution ([2]; BQ-788-B 100 μg + anti-PD1 + dabrafenib, 21 days)	interaction with anti-PD1 / anti-oncologic agents ([2]; combination therapy, tumor volume)	lymphocyte infiltration of tumor (CD8+, CD4+, Treg staining) [2, 4]	tertiary lymphoid organ (TLO) formation [2, 4]	tumor outcome (volume, IHC) ([2]; deuterated ETBR antagonist 4 μg QOD IV + anti-PD1 10 mg/kg Q4D IP, 21 days)	IC50, CXCR4 (h) inhibitory effect (Recombinant human CXCR4)	interaction with anti-PD1 ([3]; Example 3)	anti-bladder cancer treatment efficacy (tumor volume) ([3]; Example 3: 4 μg IV days 1,3,5,8,10,12,15 + 100 μg anti-PD-1 IP)	interaction with anti-PD1 ([3]; Example 5)	anti-bladder cancer treatment efficacy (tumor volume) ([3]; Example 5: IV days 1,3,5,8 + 100 μg anti-PD-1 IP, tumors about 100 mm^3 at start)	interaction with anti-PD1 ([3]; Example 6)	anti-bladder cancer treatment efficacy (tumor volume) ([3]; Example 6: 4 μg IV days 1,3,5,8 + 100 μg anti-PD-1 IP days 1,4,9)	tumor outcome (volume) ([2]; dabrafenib 30 mg/kg daily oral gavage + anti-PD1 10 mg/kg Q4D IP, 21 days)	effect of adding dabrafenib to anti-PD1/BQ-788-B combination ([2]; triple combination, tumor volume)
CCCC[C@@H](NC(=O)[C@@H](Cc1cn(C(=O)OC)c2ccccc12)NC(=O)[C@H](CC(C)(C)C)NC(=O)N1[C@H](C)CCC[C@@H]1C)C(=O)O [BQ-788, N-[([2R,6S]-2,6-dimethyl-1-piperidinyl)carbonyl]-4-methyl-L-leucyl-N-[(1R)-1-carboxylatopentyl]-1-[methoxycarbonyl]-D-tryptophanamide, reference compound]	not calculable	about 30 minutes																		
[2H]CC1CCCC(C[2H])N1C(=O)NC(CC(C)(C)C)C(=O)NC(Cc1cn(C(=O)OC)c2ccccc12)C(=O)NC(CCCC)C(=O)O (stereo not drawn) [BQ-788-B]	not calculable		about 3 hours	enhanced duration and amplitude of response; also recorded: enhanced plasma ET-1 concentration	diffuse CD8+ TIL staining	peripheral distribution of TILs	peripheral distribution of TILs	synergistic results; also recorded: synergistic activity; also recorded: restores sensitivity to the anti-PD1 antibody	robust infiltration by CD8+ lymphocytes (TILs); also recorded: strong mobilization of lymphocytes to the tumor	most frequently associated with intratumoral TLO formation and tumor reduction; also recorded: induced tertiary lymphoid organ (TLO) formation	tumor shrinkage below baseline; also recorded: tumors had been eradicated leaving only residual adipose tissue; also recorded: eradicated the tumors	not calculable	synergy	greatest anti-bladder cancer treatment efficacy	synergy	greatest anti-bladder cancer treatment efficacy	synergy	greatest anti-bladder cancer treatment efficacy		
CC(C)(C)c1nc(-c2cccc(NS(=O)(=O)c3c(F)cccc3F)c2F)c(-c2ccnc(N)n2)s1 [dabrafenib, reference compound]																			failed to shrink tumors but demonstrated intermediate tumor growth inhibition	impairs efficacy
